The values that follow are results of earlier work, collected in paper PMC11238383, “A review on the cultivation, bioactive compounds, health-promoting factors and clinical trials of medicinal mushrooms Taiwanofungus camphoratus, Inonotus obliquus and Tropicoporus linteus” (Fungal Biology and Biotechnology, 2024).

Converted amounts (≈) assume the structure as drawn.

One series relates to H1264. Further details: method as in Baek et al. [203]. Conditions: ref Baek et al. [203].
A further series relates to H1299. Further details: method as in Baek et al. [203]. The conditions noted are these: ref Baek et al. [203].
For the next series, the system named is Calu-6. Also on record: method as in Baek et al. [203]. The conditions noted are these: ref Baek et al. [203].
The test system of series [1] is C2C12 cells. Also on record: method as in Kuo et al. [174]. Conditions: ref Kuo et al. [174].
The subject of a further series is C57BL/6J mice. The conditions noted are these: 40 mg/kg/day versus Metformin 300 mg/kg/day; ref [174].
The test system of series [2] is Streptozotocin-induced diabetic C57BL/6J mice. Also on record: method as in Kuo et al. [178]. The conditions noted are these: ref Kuo et al. [178].
For series [3], the system named is Hepatitis C virus (HCV) protease. Also on record: method as in My et al. [190]. The conditions noted are these: ref My et al. [190].
Series [4] relates to Oxidative stress-induced HepG2 cells. Further details: method as in Kumar et al. [180]. The conditions noted are these: pretreatment, after 24 h; ref Kumar et al. [180].
In series [5] the test system is Obesity-induced Wistar rats. Also on record: method as in Chen et al. [181]. The conditions noted are these: ref Chen et al. [181].
In the next series the test system is breast cancer cells. Further details: method as in PMID 25656647. Conditions: ref [71].
Series [6] deals with Chronic alcohol-induced liver disease in C57BL/6J (B6) mice. Further details: method as in Chang et al. [182]. The conditions noted are these: ref Chang et al. [182].
The subject of series [7] is C2C12 cells. Also on record: method as in Kuo et al. [177]. Conditions: in vitro; ref Kuo et al. [177].
Series [8] has as its system Streptozotocin-induced diabetic C57BL/6J mice. Further details: method as in Kuo et al. [177]. Conditions: in vivo; ref Kuo et al. [177].
In series [9] the test system is High-fat diet-induced C57BL/6J mice. Also on record: method as in Lin et al. [175]. The conditions noted are these: ref Lin et al. [175].
For series [10] the test system is unchanged. Also on record: method as in Lin et al. [175]. The conditions noted are these: ref Lin et al. [175]. The source holds these as a separate data set.
Series [11] shares this test system. Further details: method as in Kuo et al. [178]. The conditions noted are these: ref Kuo et al. [178].
For series [12], the system named is Ultraviolet B-irradiated BALB/cAnN.Cg-Foxn1nu/CrlNarl hairless mice. Also on record: method as in Kuo et al. [184]. Conditions: topical 25 and 100 μM; ref Kuo et al. [184].
The test system of series [13] is MCF7, MDA-MB-231, T24 and J82 cells. Also on record: method as in Lu et al. [232]. Conditions: ref Lu et al. [232].
Series [14] deals with Oleic and palmitic acids (O/P) lipid accumulation-induced HepG2 cells. Also on record: method as in Chiu et al. [138]. Conditions: ref Chiu et al. [138].
In series [15] the test system is Severe acute respiratory syndrome coronavirus 2 (SARS-CoV-2) virus-infected HepG2 cells. Also on record: method as in Li et al. [35], [38]. Conditions: ref Li et al. [35], [38].
The subject of the next series is 3CL protease. Further details: method as in Li et al. [35], [38]. The conditions noted are these: ref Li et al. [35], [38].
The test system of a further series is aldose reductase. Further details: method as in Lee et al. [136]. The conditions noted are these: ref Lee et al. [136].
For series [16] the following is noted: ref Lee et al. [226].
In series [17] the test system is LPS-stimulated RAW264.7 cells. Also on record: method as in Huang et al. [212], [243]. Conditions: ref Huang et al. [212], [243].
A further series has as its system Influenza A H1N1 virus. Also on record: method as in Hwang et al. [13]. Conditions: 10 uM; ref Hwang et al. [13].
A further series concerns the target H1N1 neuraminidase. Conditions: ref [13].
Series [18] has as its system Streptozotocin-induced diabetic C57BL/6J mice. Further details: method as in Lin et al. [176]. Conditions: ref Lin et al. [176].
The test system of the next series is Chang liver cells. Further details: method as in Parfenov et al. [216]. The conditions noted are these: I. obliquus; 10^−5 and 10^−3 g/L; ref Parfenov et al. [216].
For series [19], the system named is Carbon tetrachloride (CCl4) liver damage induced-Sprague Dawley rats. Also on record: method as in Parfenov et al. [216]. Conditions: I. obliquus; ref Parfenov et al. [216].

In the case of `CC(C)=CCC[C@@H](C=O)[C@H]1CC[C@@]2(C)C3=C(CC[C@]12C)[C@@]1(C)CC[C@H](O)C(C)(C)[C@@H]1CC3` [3β-hydroxylanosta-8,24-dien-21-al], the IC50 is 90.9 µg/mL (≈ 206 µM) in the series on H1264, 128.0 µg/mL (≈ 290 µM) in the series with H1299 and 75.1 µg/mL (≈ 170 µM) with Calu-6.

As for `C=C(CC[C@@H](C)[C@H]1CC[C@H]2C3=C(C(=O)C[C@]12C)[C@@]1(C)CC[C@@H](O)[C@](C)(O)[C@@H]1C[C@@H]3O)C(C)C(=O)O` (stereo partly shown) [Antcin K], in the series on C2C12 cells [1], the “GLUT4 and phospho-Akt expression” value is “Enhance membrane glucose transporter 4 (GLUT4) and phosphor-Akt expressions”. For the same molecule, in the series with C57BL/6J mice, the antihyperglycemic effect entry is listed as “comparable to Metformin”. The “FAS, CPT-1a, PPARα expression” value in [2] is “Fatty acid synthase (FAS) expression levels declined while hepatic expression levels of carnitine palmitoyl transferase 1a (CPT-1a) and peroxisome proliferator-activated receptor α (PPARα) rose”.

`CC(C)=CCOc1ccc(C2=C(CC(C)C)C(=O)OC2=O)cc1` [Antrodin A]: the “half-maximal inhibitory concentration (IC50)” value in [3] is listed as “Antrodins A to E, except antrodin B, exhibited potent inhibitory effects against the HCV protease, with Antrodin A having the highest potency with a half-maximal inhibitory concentration (IC50) value of 0.9 µg/mL”.

With `COC1=C(OC)[C@H](O)[C@H](C/C=C(\C)CC/C=C(\C)CCC=C(C)C)[C@@H](C)C1=O` [Antroquinonol, antroquinonol], in series [4], the “rise in ALT and AST caused by ethanol” value was “Antroquinonol pretreatment considerably and dose-dependently decreased the rise in ALT and AST caused by ethanol after 24 h in HepG2 cells”. The hepatoprotective effect result in series [5] is reported as “Exerts hepatoprotective effects by inhibiting hepatic lipid accumulation”. Further, the migration and invasion entry in the series with breast cancer cells was “inhibit the migration and invasion of breast cancer cells”.

As to `CC(C)[C@@H](C)/C=C/[C@@H](C)[C@H]1CC[C@H]2C3=CCC4C[C@@H](O)CC[C@]4(C)C3=CC[C@]12C` (stereo partly shown) [Antrosterol], in series [6], the hepatoprotective findings result is “Reduction in serum/hepatic lipids, rise in output of fecal lipid/bile-acid output, amplified hepatic antioxidant activities, reduced serum alcohol level, decrease liver inflammation, fibrosis, serum AST/ALT and TNF-α/IL-1β”.

With `C=C(CC[C@@H](C(=O)O)[C@H]1CC[C@@]2(C)C3=CC[C@H]4C(C)(C)[C@@H](O)CC[C@]4(C)C3=CC[C@]12C)C(C)C` [Dehydroeburicoic acid], in the series on C2C12 cells [7], the GLUT4 expression entry is listed as “Higher expression of GLUT4”. Moreover, the “decrease in blood glucose level” value in series [8] is on record as 43.6–46.5%.

Turning to `C=C(CC[C@@H](C(=O)O)[C@H]1CC[C@@]2(C)C3=C(CC[C@]12C)[C@@]1(C)CC[C@H](O)C(C)(C)[C@@H]1CC3)C(C)C` [Eburicoic acid], the “AMPK phosphorylation, Akt, membrane GLUT4” value in [9] is “Increase AMPK phosphorylation, Akt, and membrane GLUT4 level”. Moreover, in series [10], the “PPAR-α expression in the liver” value is “Increased expression of PPAR-α in the liver which facilitated fatty acid oxidation and the reduction of lipid levels”.

As for `CC(C)[C@@H](C)/C=C/[C@@H](C)[C@H]1CC[C@H]2C3=CCC4C[C@@H](O)CC[C@]4(C)C3=CC[C@]12C` (stereo partly drawn) [Ergostatrien-3β-ol], the “visceral adipocyte size, hepatic ballooning” value in [11] is “Reduced visceral adipocyte size and induced hepatic ballooning degeneration”. The “MMP-1, IL-6, iNOS, NF-κB in skin” value in [12] is “Significant inhibition of metalloproteinase-1 (MMP-1), IL-6, iNOS and NF-κB in skin”.

For the molecule `CC(=O)/C=C(O)/C=C/c1ccc(O)c(O)c1` [Hispolon, hispolon], in series [13], the “suppression of cancer cells” value was “Suppressed p53 mutant (MDA-MB-231, T24, and J82) and wild-type (MCF7) cells regardless of p53 status Apoptosis characterized by chromatin condensation and poly (ADP-ribose) polymerase (PARP) increase”.

Regarding `O=c1cc(O)cc([C@H]2c3c(cc(/C=C/c4ccc(O)c(O)c4)oc3=O)O[C@@H]2c2ccc(O)c(O)c2)o1` [Hypholomine B, hypholomine B], the lipid accumulation result in series [14] is listed as “Significant reduction in lipid accumulation”. Further, the ACE2 gene expression result in series [15] was “Reduced the expression of angiotensin-converting enzyme 2 (ACE2) gene”. In the series on 3CL protease, the 3CL protease result was “Inhibition of 3CL protease”. The aldose reductase inhibition entry in the series with aldose reductase is reported as “capable of inhibiting aldose reductase”.

`CC1=CC(=O)/C(=C/c2ccc(O)c(O)c2)O1` [Inotilone, inotilone]: the antioxidant activity entry in [16] is “Potent antioxidant activity, with higher antioxidant activity than BHA and Trolox in FRAP assay”. In [17], the “NO, iNOS, NF-κB, MMP-9” value was “Inhibit NO production, iNOS, NF-κB, and MMP-9 expressions, and LPS-induced ERK, JNK, and p38 phosphorylation”. Besides, the visible cytopathic effects with Influenza A H1N1 virus is 10 uM of both inhibited the formation of visible cytopathic effects, with IC50 values lower than Oseltamivir. Further, at H1N1 neuraminidase, the IC50 is 61 µM and the neuraminidase activity result is given as “inhibit neuraminidase activity”.

Take `C=C(CC[C@@H](C(=O)O)[C@H]1C[C@H](O)[C@@]2(C)C3=C(CC[C@]12C)[C@@]1(C)CC[C@H](O)C(C)(C)[C@@H]1CC3)C(C)C` [Sulphurenic acid]: the “insulin and HbA1c” value in [18] is “Rise of insulin levels and reduction in the concentration of glycated hemoglobin (HbA1c)”. Besides, the “PPAR-α expression in the liver” value in [10] is “Increased expression of PPAR-α in the liver which facilitated fatty acid oxidation and the reduction of lipid levels”.

Regarding Melanin, the “increase in viability of liver cells intoxicated with d-galactosamine” value in the series on Chang liver cells is 2–2.5 times. Also, the liver damage findings result in [19] is listed as “Decrease in fat buildup, steatosis, necrosis”.
